Values of other authors, collected in patent US20230071934A1, “NOVEL USES” (Intra-Cellular Therapies, Inc., priority 2019, published 2023).

Biological target: T1, sEH (Homo sapiens, UniProt P34913)
T1 sequence (P34913 1-555): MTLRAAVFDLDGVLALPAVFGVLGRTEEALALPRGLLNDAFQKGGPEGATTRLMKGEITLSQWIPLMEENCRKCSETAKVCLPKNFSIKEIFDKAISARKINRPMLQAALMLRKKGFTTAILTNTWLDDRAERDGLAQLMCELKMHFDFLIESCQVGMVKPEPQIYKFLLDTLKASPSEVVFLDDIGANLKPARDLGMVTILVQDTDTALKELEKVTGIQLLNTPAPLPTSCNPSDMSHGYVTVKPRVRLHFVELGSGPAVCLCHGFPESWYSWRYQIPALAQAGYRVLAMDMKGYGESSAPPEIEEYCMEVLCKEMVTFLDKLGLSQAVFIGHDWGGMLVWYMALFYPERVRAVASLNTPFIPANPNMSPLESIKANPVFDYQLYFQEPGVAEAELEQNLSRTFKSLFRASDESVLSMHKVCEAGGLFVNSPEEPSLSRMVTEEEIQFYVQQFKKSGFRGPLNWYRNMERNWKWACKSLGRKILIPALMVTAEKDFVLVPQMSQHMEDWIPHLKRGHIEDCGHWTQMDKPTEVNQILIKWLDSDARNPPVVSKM

**Q.** Which “activity as an inhibitor of sEH” value does the source give for `CCCCCCCCCCCCNC(=O)NC12CC3CC(CC(C3)C1)C2` [ADU, N-Adamantyl-N′-dodecyl urea] here?
**A.** particularly high activity
